In PubChem BioAssay AID651948 (The Scripps Research Institute Molecular Screening Center, 2012):

Target: Heat shock 70 kDa protein 1A (Homo sapiens) (UniProt P0DMV8)
Experiment: PubChem AID 651948
Details: HeLa Hsp70 protein level, western blot, 8 h; at 10 µM; stronger effect = higher value

Heat shock 70 kDa protein 1A (Homo sapiens), sequence (P0DMV8 whole entry, looked up): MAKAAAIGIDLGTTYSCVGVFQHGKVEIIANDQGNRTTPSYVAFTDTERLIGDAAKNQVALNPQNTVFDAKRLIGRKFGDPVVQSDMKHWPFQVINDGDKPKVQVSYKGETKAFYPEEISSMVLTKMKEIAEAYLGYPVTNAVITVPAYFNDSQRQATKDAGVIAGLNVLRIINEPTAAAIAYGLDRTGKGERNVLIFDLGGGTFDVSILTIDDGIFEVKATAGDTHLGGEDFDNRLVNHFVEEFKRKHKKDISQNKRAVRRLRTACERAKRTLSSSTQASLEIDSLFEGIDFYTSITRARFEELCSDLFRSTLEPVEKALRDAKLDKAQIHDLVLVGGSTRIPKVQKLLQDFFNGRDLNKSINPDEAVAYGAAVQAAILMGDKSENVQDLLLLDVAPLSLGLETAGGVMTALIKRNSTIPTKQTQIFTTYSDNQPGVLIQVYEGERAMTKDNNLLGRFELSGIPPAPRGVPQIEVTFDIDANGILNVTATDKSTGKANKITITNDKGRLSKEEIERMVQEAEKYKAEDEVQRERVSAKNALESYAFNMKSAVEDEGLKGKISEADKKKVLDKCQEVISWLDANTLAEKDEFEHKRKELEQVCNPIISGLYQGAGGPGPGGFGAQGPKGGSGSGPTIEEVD

Q: How did the fold induction turn out when `COc1ccc(/C=C/C=C2C(=O)NC(=O)NC2=O)cc1` was run?
A: 1.8
